Measurements as given in patent US10364256B2 (GlaxoSmithKline Intellectual Property Development Limited, priority 2015, dated 2019).
Read-outs that look alike come from different tables or passages of the source.

Assays:
[1] = test system: NQO1 specific enzyme activity in BEAS-2B cells (marker for NRF2 activation); assay: BEAS-2B NQO1 MTT Assay; assay type: cell-based; settings: Homo sapiens, compound incubated 48 hours, read-out: EC50 (NQO1 specific enzyme activity induction)
Procedure, shortened: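 BEAS-2B cells treated with compound for 48 h at 37 °C, then lysed; NQO1 activity in lysates measured kinetically by MTT reduction at A570 over 30 min. pEC50 from 3-parameter fit of ΔOD/min versus log concentration; lysate also taken for Cell Titer Glo.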

[2] = target: T1, full length Keap1 protein / full length NRF2 protein (Homo sapiens, UniProt Q14145); assay: NRF2-Keap1 TR-FRET Low Protein Assay; assay type: binding; settings: 1.25 nM Keap1 FlagHis and 2.5 nM biotin-NRF2 added
T1 construct: full length NRF2 protein and full length Keap1 protein (Keap1 exists a dimer) are used; His
T1 sequence (Q14145 whole entry): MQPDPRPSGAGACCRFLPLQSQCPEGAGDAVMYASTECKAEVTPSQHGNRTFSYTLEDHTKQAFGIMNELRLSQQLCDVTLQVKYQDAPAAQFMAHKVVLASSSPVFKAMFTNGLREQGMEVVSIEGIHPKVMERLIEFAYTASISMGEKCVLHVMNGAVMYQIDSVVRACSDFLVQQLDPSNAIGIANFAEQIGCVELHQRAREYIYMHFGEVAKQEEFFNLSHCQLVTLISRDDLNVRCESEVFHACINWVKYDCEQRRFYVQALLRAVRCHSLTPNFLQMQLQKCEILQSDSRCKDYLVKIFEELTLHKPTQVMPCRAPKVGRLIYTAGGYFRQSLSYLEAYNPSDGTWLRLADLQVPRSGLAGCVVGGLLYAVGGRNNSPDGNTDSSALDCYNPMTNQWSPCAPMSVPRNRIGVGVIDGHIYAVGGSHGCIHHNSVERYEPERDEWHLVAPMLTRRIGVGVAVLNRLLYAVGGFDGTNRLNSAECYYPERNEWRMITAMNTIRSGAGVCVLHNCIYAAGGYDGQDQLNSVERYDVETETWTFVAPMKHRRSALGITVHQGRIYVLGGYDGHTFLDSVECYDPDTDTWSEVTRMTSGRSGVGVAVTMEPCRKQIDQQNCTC
Procedure, shortened: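 Flag-tagged full-length Keap1 was preincubated with compound (3-fold series) for 2.25 h at 37 °C in Tris pH 8.0/MgCl2/NaCl/BSA/DTT/CHAPS. Biotin-Avi-NRF2 (added at 2.5 nM) was then bound for 1.25 h at 4 °C. Eu-streptavidin/anti-Flag-APC TR-FRET (665/615 nm) was read after 1 h at RT, and pIC50 came from a four-parameter fit.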

| IC50 [2] [µM] | Compound | EC50 ([1]; BEAS-2B, 48 h) [µM] | EC50 [1] [µM] |
| --- | --- | --- | --- |
| 0.01 to 0.1 | CC(Oc1cccc(-c2cccc(-n3ncc(C(=O)O)c3C3CC3c3cn(C)nn3)c2)c1)C1CCCC1 (centres unmarked) [Example 228, 1-(3′-(1-Cyclopentylethoxy)-[1,1′-biphenyl]-3-yl)-5-(2-(1-methyl-1H-1,2,3-triazol-4-yl)cyclopropyl)-1H-pyrazole-4-carboxylic acid] | – | 0.001 to 0.01 |
| 0.01 to 0.1 | Cn1cc(C2CC2c2c(C(=O)O)cnn2-c2cccc(-c3cccc(CCC4CCCCC4)c3)c2)nn1 (centres unmarked) [Example 233, 1-(3′-(2-Cyclohexylethyl)-[1,1′-biphenyl]-3-yl)-5-(2-(1-methyl-1H-1,2,3-triazol-4-yl)cyclopropyl)-1H-pyrazole-4-carboxylic Acid] | – | 0.001 to 0.01 |
| 0.01 to 0.1 | Cn1cc(C2CC2c2c(C(=O)O)cnn2-c2cccc(-c3cccc(OC4CCCCC4)c3)c2)nn1 (centres unmarked) [Example 229] | – | 0.01 to 0.1 |
| 0.01 to 0.1 | Cn1cc(C2CC2c2c(C(=O)O)cnn2-c2cccc(-c3cccc(C(=O)C4CCCCC4)c3)c2)nn1 (centres unmarked) [Example 243, 1-(3′-(Cyclohexanecarbonyl)-[1,1′-biphenyl]-3-yl)-5-(2-(1-methyl-1H-1,2,3-triazol-4-yl)cyclopropyl)-1H-pyrazole-4-carboxylic Acid] | – | 0.1 to 1 |
| 1 to 10 | CC(CC1CCCCC1)Oc1cccc(-c2cccc(-n3ncc(C(=O)O)c3C3CC3)c2)c1 (centres unmarked) [Example 161, 1-(3′-((1-Cyclohexylpropan-2-yl)oxy)-[1,1′-biphenyl]-3-yl)-5-cyclopropyl-1H-pyrazole-4-carboxylic Acid] | – | 0.1 to 1 |
| 0.1 to 1 | COC1CCCCC1COc1cccc(-c2cccc(-n3ncc(C(=O)O)c3[C@H]3C[C@@H]3c3cn(C)nn3)c2)c1 (mixture of isomers) [Example 177, 1-(3′-((2-Methoxycyclohexyl)methoxy)-[1,1′-biphenyl]-3-yl)-5-((1,2-trans)-2-(1-methyl-1H-1,2,3-triazol-4-yl)cyclopropyl)-1H-pyrazole-4-carboxylic acid] | – | 0.1 to 1 |
| < 0.01 | CC(Oc1cccc(-c2cccc(-n3ncc(C(=O)O)c3[C@H]3C[C@@H]3c3cn(C)nn3)c2)c1)C1CCCCC1 (stereo partly drawn) [Example 165, 1-(3′-(1-Cyclohexylethoxy)-[1,1′-biphenyl]-3-yl)-5-((1S,2S)-2-(1-methyl-1H-1,2,3-triazol-4-yl)cyclopropyl)-1H-pyrazole-4-carboxylic acid] | 0.001 to 0.01 | – |
| 0.01 to 0.1 | Cn1cc(C2CC2c2c(C(=O)O)cnn2-c2cccc(-c3cccc(C(=O)CC4CCCCC4)c3)c2)nn1 (centres unmarked) [Example 215, 1-(3′-(2-Cyclohexylacetyl)-[1,1′-biphenyl]-3-yl)-5-(2-(1-methyl-1H-1,2,3-triazol-4-yl)cyclopropyl)-1H-pyrazole-4-carboxylic Acid] | – | 0.1 to 1 |
| 0.1 to 1 | Cn1cc(C2CC2c2c(C(=O)O)cnn2-c2cccc(-c3cccc(OCc4ccccc4)c3)c2)nn1 (centres unmarked) [Example 221] | – | 0.1 to 1 |
| 0.01 to 0.1 | Cn1cc([C@@H]2C[C@H]2c2c(C(=O)O)cnn2-c2cccc(-c3cccc(OCC4CCCC(C(F)(F)F)C4)c3)c2)nn1 (mixture of isomers) [Example 147, 5-((1,2-trans)-2-(1-Methyl-1H-1,2,3-triazol-4-yl)cyclopropyl)-1-(3′-((3-(trifluoromethyl)cyclohexyl)methoxy)-[1,1′-biphenyl]-3-yl)-1H-pyrazole-4-carboxylic acid] | – | 0.01 to 0.1 |
| 0.01 to 0.1 | COC(CC1CCCCC1)c1cccc(-c2cccc(-n3ncc(C(=O)O)c3C3CC3c3cn(C)nn3)c2)c1 (centres unmarked) [Example 216, 1-(3′-(2-Cyclohexyl-1-methoxyethyl)-[1,1′-biphenyl]-3-yl)-5-(2-(1-methyl-1H-1,2,3-triazol-4-yl)cyclopropyl)-1H-pyrazole-4-carboxylic Acid] | – | 0.01 to 0.1 |

Further lines, the compound ahead of its results:

| Compound | IC50 [2] [µM] | EC50 ([1]; BEAS-2B, 48 h) [µM] | EC50 [1] [µM] |
| --- | --- | --- | --- |
| CCC[C@@H]1CCCCN1C(=O)c1cccc(-c2cccc(-n3ncc(C(=O)O)c3C3CC3c3cn(C)nn3)c2)c1F (stereo partly drawn) [Example 57, 1-(2′-Fluoro-3′-((R)-2-propylpiperidine-1-carbonyl)-[1,1′-biphenyl]-3-yl)-5-(2-(1-methyl-1H-1,2,3-triazol-4-yl)cyclopropyl)-1H-pyrazole-4-carboxylic Acid] | < 0.01 | 0.01 to 0.1 | – |
| CCC[C@@H]1CCCCN1C(=O)c1cccc(-c2cc(Cl)cc(-n3ncc(C(=O)O)c3C3CC3c3cn(C)nn3)c2)c1 (stereo partly drawn) [Example 160, 1-(5-Chloro-3′-((R)-2-propylpiperidine-1-carbonyl)-[1,1′-biphenyl]-3-yl)-5-(2-(1-methyl-1H-1,2,3-triazol-4-yl)cyclopropyl)-1H-pyrazole-4-carboxylic Acid Compound with 2,2,2-trifluoroacetic Acid (1:1)] | < 0.01 | 0.1 to 1 | – |
| O=C(O)c1cnn(-c2cccc(-c3cccc(C(=O)N(CC4CCCC4)CC4CC4)c3F)c2)c1C1CC1 [Example 14, 1-(3-{3-[(Cyclopentylmethyl)(cyclopropylmethyl)carbamoyl]-2-fluorophenyl}phenyl)-5-cyclopropyl-1H-pyrazole-4-carboxylic Acid] | 0.01 to 0.1 | – | 0.1 to 1 |
| CCC[C@@H]1CCCCN1C(=O)c1cccc(-c2cccc(-n3ncc(C(=O)O)c3C3CC3c3cn(C)nn3)n2)c1 (stereo partly drawn) [Example 196, 5-(2-(1-Methyl-1H-1,2,3-triazol-4-yl)cyclopropyl)-1-(6-(3-((R)-2-propylpiperidine-1-carbonyl)phenyl)pyridin-2-yl)-1H-pyrazole-4-carboxylic Acid] | < 0.01 | 0.1 to 1 | – |
| Cn1cc(C2CC2c2c(C(=O)O)cnn2-c2cccc(-c3cccc(OCc4cccc(F)c4)c3)c2)nn1 (centres unmarked) [Example 224, 1-(3′-((3-Fluorobenzyl)oxy)-[1,1′-biphenyl]-3-yl)-5-(2-(1-methyl-1H-1,2,3-triazol-4-yl)cyclopropyl)-1H-pyrazole-4-carboxylic acid] | 0.1 to 1 | – | 0.1 to 1 |
| Cn1cc(C2CC2c2c(C(=O)O)cnn2-c2cccc(-c3cccc(-n4ncc5c4C(C)(C)CC5)c3)c2)nn1 (centres unmarked) [Example 212, 1-(3′-(6,6-Dimethyl-5,6-dihydrocyclopenta[c]pyrazol-1(4H)-yl)-[1,1′-biphenyl]-3-yl)-5-(2-(1-methyl-1H-1,2,3-triazol-4-yl)cyclopropyl)-1H-pyrazole-4-carboxylic Acid] | < 0.01 | – | 0.1 to 1 |
| O=C(O)c1cnn(-c2cccc(-c3cccc(-n4ncc5c4CCC5)c3)c2)c1C1CC1 [Example 61, 5-Cyclopropyl-1-(3′-(5,6-dihydrocyclopenta[c]pyrazol-1(4H)-yl)-[1,1′-biphenyl]-3-yl)-1H-pyrazole-4-carboxylic Acid] | 1 to 10 | 0.1 to 1 | – |
| Cn1cc(C2CC2c2c(C(=O)O)cnn2-c2cccc(-c3cccc(OCC4CCN(C(=O)OC(C)(C)C)CC4)c3)c2)nn1 (centres unmarked) [Example 167, 1-(3′-((1-(tert-Butoxycarbonyl)piperidin-4-yl)methoxy)-[1,1′-biphenyl]-3-yl)-5-(2-(1-methyl-1H-1,2,3-triazol-4-yl)cyclopropyl)-1H-pyrazole-4-carboxylic acid] | 0.01 to 0.1 | – | 0.1 to 1 |
| CCCCC1CCc2cnn(-c3cccc(-c4cccc(-n5ncc(C(=O)O)c5C5CC5)c4)c3)c21 (centres unmarked) [Example 206, 1-(3′-(6-Butyl-5,6-dihydrocyclopenta[c]pyrazol-1(4H)-yl)-[1,1′-biphenyl]-3-yl)-5-cyclopropyl-1H-pyrazole-4-carboxylic Acid] | 0.1 to 1 | – | 0.1 to 1 |
| CCCC1CCCCN1C(=O)c1cccc(-c2cccc(-n3ncc(C(=O)O)c3C3CC3)c2)c1F (centres unmarked) [Example 17, 5-Cyclopropyl-1-{3-[2-fluoro-3-(2-propylpiperidine-1-carbonyl)phenyl]phenyl}-1H-pyrazole-4-carboxylic Acid] | 0.01 to 0.1 | – | 0.1 to 1 |
| Cn1cc([C@H]2C[C@@H]2c2c(C(=O)O)cnn2-c2cccc(-c3cccc(-n4ncc5c4C(C)(C)CC5)c3)c2)nn1 (stereo in doubt) [Example 208, 1-(3′-(6,6-Dimethyl-5,6-dihydrocyclopenta[c]pyrazol-1(4H)-yl)-[1,1′-biphenyl]-3-yl)-5-((1S,2S)-2-(1-methyl-1H-1,2,3-triazol-4-yl)cyclopropyl)-1H-pyrazole-4-carboxylic Acid] | < 0.01 | – | 0.01 to 0.1 |
| Cn1cc(C2CC2c2c(C(=O)O)cnn2-c2cccc(-c3cccc(OCCC(C)(C)C)c3)c2)nn1 (centres unmarked) [Example 225, 1-(3′-(3,3-Dimethylbutoxy)-[1,1′-biphenyl]-3-yl)-5-(2-(1-methyl-1H-1,2,3-triazol-4-yl)cyclopropyl)-1H-pyrazole-4-carboxylic acid] | 0.01 to 0.1 | – | 0.01 to 0.1 |
| C[C@@H]1CCC[C@H](C)N1C(=O)c1cccc(-c2cccc(-n3ncc(C(=O)O)c3C3CC3)c2)c1F [Example 21, 5-Cyclopropyl-1-(3-{3-[(2R,6S)-2,6-dimethylpiperidine-1-carbonyl]-2-fluorophenyl}phenyl)-1H-pyrazole-4-carboxylic Acid] | 0.1 to 1 | – | 0.1 to 1 |
| CC(Oc1cccc(-c2cccc(-n3ncc(C(=O)O)c3[C@H]3C[C@@H]3c3cn(C)nn3)c2)c1)c1cccc(-c2ccccc2)c1 (mixture of isomers) [Example 239, 1-(3′-(1-([1,1′-Biphenyl]-3-yl)ethoxy)-[1,1′-biphenyl]-3-yl)-5-((1,2-trans)-2-(1-methyl-1H-1,2,3-triazol-4-yl)cyclopropyl)-1H-pyrazole-4-carboxylic Acid] | 0.1 to 1 | – | 0.1 to 1 |
